Assay results published in patent US12391737B2, “Soluble NPY2 receptor agonists” (Boehringer Ingelheim International GmbH, priority 2020, dated 2025).

Key:
[1] = target: T1, Human Neuropeptide Y2 Receptor (Homo sapiens, UniProt P49146); assay: Radioligand binding competition assay (RLB); details: Table 3, 125I-PYY(1-36) competition; read-out: Ki
T1 construct: purchased CHEMICON HTS066M
T1 sequence (P49146 1-381): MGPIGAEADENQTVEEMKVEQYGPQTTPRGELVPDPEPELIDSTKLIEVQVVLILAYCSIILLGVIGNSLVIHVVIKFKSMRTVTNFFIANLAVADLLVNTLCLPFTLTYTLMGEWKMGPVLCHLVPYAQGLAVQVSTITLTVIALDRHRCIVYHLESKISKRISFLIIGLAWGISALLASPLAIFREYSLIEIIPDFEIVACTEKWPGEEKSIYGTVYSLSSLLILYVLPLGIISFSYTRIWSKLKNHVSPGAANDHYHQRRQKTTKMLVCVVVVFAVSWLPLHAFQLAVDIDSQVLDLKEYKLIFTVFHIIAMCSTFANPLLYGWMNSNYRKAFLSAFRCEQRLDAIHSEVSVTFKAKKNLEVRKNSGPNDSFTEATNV
Summary of the method: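 Peptides were serially diluted from 1 mM DMSO stocks and competed for radioligand binding to receptor membranes (0.5 μg/well) over 2 h at room temperature, pH 7.4 HEPES buffer. Bound radioactivity on filters was counted by scintillation, and IC50 was derived by nonlinear regression.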

Solubility determination = assay: Solubility determination
Summary of the method: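 Sample: TFA-salt peptide at 10 mg/ml target in 0.1 M Na diphosphate, pH 6.4 or 7.0, shaken 2 h RT, filtered, diluted to 1 mg/ml.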

SMILES	Ki [1]	Sol6 (Solubility determination; pH 6)	Sol7 (Solubility determination; pH 7)	Sol6 (Solubility determination; solubility in the pH 6 condition, measured pH printed in the next column (6.0-6.3))	Sol7 (Solubility determination; solubility in the pH 7 condition, measured pH printed in the next column (6.6-6.9))
CC(C)CC(=O)N[C@@H](C)C(=O)N1CCC[C@H]1C(=O)N[C@@H](CCC(=O)O)C(=O)N[C@@H](CCCCNC(=O)CCCCCNC(=O)CC[C@H](NC(=O)CCCCCCCCCCCCCCCCC(=O)O)C(=O)O)C(=O)N1CCC[C@H]1C(=O)N[C@@H](CCC(=O)O)C(=O)N[C@@H](CCC(=O)O)C(=O)N[C@@H](CC(=O)O)C(=O)N[C@@H](C)C(=O)N[C@H](C(=O)N1CCC[C@H]1C(=O)N[C@@H](CCC(=O)O)C(=O)N[C@@H](CCC(=O)O)C(=O)N[C@@H](CC(C)C)C(=O)N[C@@H](CCC(N)=O)C(=O)N[C@@H](CCC(N)=O)C(=O)N[C@@H](Cc1ccc(O)cc1)C(=O)N[C@@H](Cc1ccc(O)cc1)C(=O)N[C@H](C(=O)N[C@@H](CO)C(=O)N[C@@H](CC(C)C)C(=O)N[C@@H](CCCNC(=N)N)C(=O)N[C@@H](Cc1c[nH]cn1)C(=O)N[C@@H](Cc1ccc(O)cc1)C(=O)N[C@@H](Cc1ccc(O)cc1)C(=O)N[C@@H](CC(N)=O)C(=O)N[C@@H](Cc1c[nH]c2ccccc12)C(=O)N[C@@H](CC(C)C)C(=O)N[C@H](C(=O)N[C@@H](CCCNC(=N)N)C(=O)N[C@@H](CCC(N)=O)C(=O)N[C@@H](CCCNC(=N)N)C(=O)N[C@@H](Cc1ccc(O)cc1)C(N)=O)[C@@H](C)O)C(C)C)[C@@H](C)O [Compound 177, N{alpha-4}-(3-methylbutanoyl)-N{epsilon-7}-(6-[(4S)-4-carboxy-4-(17-carboxyheptadecanamido)butanamido]hexanoyl)-[4A,7K,9E,13T,18Q,19Q,22V,28Y,30W,31L]-hPYY(4-36)]	8.65 nM	>10.0 mg/mL	10.0 mg/mL	–	–
CC[C@H](C)[C@H](NC(=O)[C@H](CCC(=O)O)NC(=O)[C@H](CCC(=O)O)NC(=O)[C@@H]1CCCN1C(=O)[C@@H](NC(=O)[C@H](C)NC(=O)[C@H](C)NC(=O)[C@H](C)NC(=O)[C@H](CCC(=O)O)NC(=O)[C@@H]1CCCN1C(=O)[C@H](CCCCNC(=O)CCCCCNC(=O)CC[C@H](NC(=O)CCCCCCCCCCCCCCCCC(=O)O)C(=O)O)NC(=O)[C@H](CCC(=O)O)NC(=O)[C@@H]1CCCN1C(=O)[C@H](C)NC(=O)CC(C)C)[C@@H](C)O)C(=O)N[C@@H](CCC(N)=O)C(=O)N[C@@H](CCCNC(=N)N)C(=O)N[C@@H](Cc1ccc(O)cc1)C(=O)N[C@@H](Cc1ccc(O)cc1)C(=O)N[C@H](C(=O)N[C@@H](C)C(=O)N[C@@H](CC(C)C)C(=O)N[C@@H](CCCNC(=N)N)C(=O)N[C@@H](Cc1c[nH]cn1)C(=O)N[C@@H](Cc1ccc(O)cc1)C(=O)N[C@@H](Cc1ccc(O)cc1)C(=O)N[C@@H](CC(N)=O)C(=O)N[C@@H](Cc1c[nH]c2ccccc12)C(=O)N[C@@H](CC(C)C)C(=O)N[C@H](C(=O)N[C@@H](CCCNC(=N)N)C(=O)N[C@@H](CCC(N)=O)C(=O)N[C@@H](CCCNC(=N)N)C(=O)N[C@@H](Cc1ccc(O)cc1)C(N)=O)[C@@H](C)O)C(C)C [Compound 178, N{alpha-4}-(3-methylbutanoyl)-N{epsilon-7}-(6-[(4S)-4-carboxy-4-(17-carboxyheptadecanamido)butanamido]hexanoyl)-[4A,7K,9E,10A,11A,13T,17I,18Q,22V,23A,28Y,30W,31L]-hPYY(4-36)]	3.39 nM	0.0 mg/mL	0.4 mg/mL	–	–
CC(C)CC(=O)N[C@@H](C)C(=O)N1CCC[C@H]1C(=O)N[C@@H](CCC(=O)O)C(=O)N[C@@H](CCCCNC(=O)CCCCCNC(=O)CC[C@H](NC(=O)CCCCCCCCCCCCCCCCC(=O)O)C(=O)O)C(=O)N1CCC[C@H]1C(=O)N[C@@H](CCC(=O)O)C(=O)N[C@@H](C)C(=O)N[C@@H](CC(=O)O)C(=O)N[C@@H](C)C(=O)N[C@@H](CO)C(=O)N1CCC[C@H]1C(=O)N[C@@H](CCC(=O)O)C(=O)N[C@@H](CCC(=O)O)C(=O)N[C@H](C(=O)N[C@@H](CCC(N)=O)C(=O)N[C@@H](CCCNC(=N)N)C(=O)N[C@@H](Cc1ccc(O)cc1)C(=O)N[C@@H](Cc1ccc(O)cc1)C(=O)N[C@H](C(=O)N[C@@H](C)C(=O)N[C@@H](CC(C)C)C(=O)N[C@@H](CCCNC(=N)N)C(=O)N[C@@H](Cc1c[nH]cn1)C(=O)N[C@@H](Cc1ccc(O)cc1)C(=O)N[C@@H](Cc1ccc(O)cc1)C(=O)N[C@@H](CC(N)=O)C(=O)N[C@@H](Cc1c[nH]c2ccccc12)C(=O)N[C@@H](CC(C)C)C(=O)N[C@H](C(=O)N[C@@H](CCCNC(=N)N)C(=O)N[C@@H](CCC(N)=O)C(=O)N[C@@H](CCCNC(=N)N)C(=O)N[C@@H](Cc1ccc(O)cc1)C(N)=O)[C@@H](C)O)C(C)C)[C@@H](C)O [Compound 179, N{alpha-4}-(3-methylbutanoyl)-N{epsilon-7}-(6-[(4S)-4-carboxy-4-(17-carboxyheptadecanamido)butanamido]hexanoyl)-[4A,7K,9E,10A,17T,18Q,22V,23A,28Y,30W,31L]-hPYY(4-36)]	0.89 nM	8.1 mg/mL	8.3 mg/mL	–	–
CC(C)CC(=O)N[C@@H](C)C(=O)N1CCC[C@H]1C(=O)N[C@@H](CCC(=O)O)C(=O)N[C@@H](CCCCNC(=O)CCCCCNC(=O)CC[C@H](NC(=O)CCCCCCCCCCCCCCCCC(=O)O)C(=O)O)C(=O)N1CCC[C@H]1C(=O)N[C@@H](CCC(=O)O)C(=O)N[C@@H](CCC(=O)O)C(=O)N[C@@H](CC(=O)O)C(=O)N[C@@H](C)C(=O)N[C@H](C(=O)N1CCC[C@H]1C(=O)N[C@@H](CCC(=O)O)C(=O)N[C@@H](CCC(=O)O)C(=O)N[C@@H](CC(C)C)C(=O)N[C@@H](CCC(N)=O)C(=O)N[C@@H](CCCNC(=N)N)C(=O)N[C@@H](Cc1ccc(O)cc1)C(=O)N[C@@H](Cc1ccc(O)cc1)C(=O)N[C@H](C(=O)N[C@@H](CO)C(=O)N[C@@H](CC(C)C)C(=O)N[C@@H](CCCNC(=N)N)C(=O)N[C@@H](Cc1c[nH]cn1)C(=O)N[C@@H](Cc1ccc(O)cc1)C(=O)N[C@@H](Cc1ccc(O)cc1)C(=O)N[C@@H](CC(N)=O)C(=O)N[C@@H](Cc1c[nH]c2ccccc12)C(=O)N[C@@H](CC(C)C)C(=O)N[C@H](C(=O)N[C@@H](CCCCN)C(=O)N[C@@H](CCC(N)=O)C(=O)N[C@@H](CCCNC(=N)N)C(=O)N[C@@H](Cc1ccc(O)cc1)C(N)=O)[C@@H](C)O)C(C)C)[C@@H](C)O [Compound 180, N{alpha-4}-(3-methylbutanoyl)-N{epsilon-7}-(6-[(4S)-4-carboxy-4-(17-carboxyheptadecanamido)butanamido]hexanoyl)-[4A,7K,9E,13T,18Q,22V,28Y,30W,31L,33K]-hPYY(4-36)]	15.1 nM	–	–	9.9 mg/mL	10.0 mg/mL
CC[C@H](C)[C@H](NC(=O)[C@H](CCC(=O)O)NC(=O)[C@H](CCC(=O)O)NC(=O)[C@@H]1CCCN1C(=O)[C@H](CCC(=O)O)NC(=O)[C@H](C)NC(=O)[C@H](CC(=O)O)NC(=O)[C@H](C)NC(=O)[C@H](CCC(=O)O)NC(=O)[C@@H]1CCCN1C(=O)[C@H](CCCCNC(=O)CCCCCNC(=O)CC[C@H](NC(=O)CCCCCCCCCCCCCCCCC(=O)O)C(=O)O)NC(=O)[C@H](C)NC(=O)[C@@H]1CCCN1C(=O)[C@H](C)NC(=O)CC(C)C)C(=O)N[C@@H](CCC(N)=O)C(=O)N[C@@H](CCCNC(=N)N)C(=O)N[C@@H](Cc1ccc(O)cc1)C(=O)N[C@@H](Cc1ccc(O)cc1)C(=O)N[C@H](C(=O)N[C@@H](C)C(=O)N[C@@H](CC(C)C)C(=O)N[C@@H](CCCNC(=N)N)C(=O)N[C@@H](Cc1c[nH]cn1)C(=O)N[C@@H](Cc1ccc(O)cc1)C(=O)N[C@@H](Cc1ccc(O)cc1)C(=O)N[C@@H](CC(N)=O)C(=O)N[C@@H](Cc1c[nH]c2ccccc12)C(=O)N[C@@H](CC(C)C)C(=O)N[C@H](C(=O)N[C@@H](CCCNC(=N)N)C(=O)N[C@@H](CCC(N)=O)C(=O)N[C@@H](CCCNC(=N)N)C(=O)N[C@@H](Cc1ccc(O)cc1)C(N)=O)[C@@H](C)O)C(C)C [Compound 181, N{alpha-4}-(3-methylbutanoyl)-N{epsilon-7}-(6-[(4S)-4-carboxy-4-(17-carboxyheptadecanamido)butanamido]hexanoyl)-[4A,6A,7K,9E,10A,13E,17I,18Q,22V,23A,28Y,30W,31L]-hPYY(4-36)]	1.33 nM	9.5 mg/mL	9.3 mg/mL	–	–
